# Laboratory results reported in patent US10723711B2, “1,1,1-trifluoro-3-hydroxypropan-2-yl carbamate derivatives and 1,1,1-trifluoro-4-hydroxybutan-2-yl carbamate derivatives as MAGL inhibitors” (PFIZER INC., priority 2015, dated 2020).
# pIC50: −log10 of the molar value. Like-named read-outs stand apart in the source and are kept apart here.
# Legend:
# [1] = target: T1, human recombinant Monoacylglycerol Lipase (Homo sapiens, UniProt Q99685); assay: MAGL inhibition enzymatic assay, fluorogenic substrate 7-HCA, IC50 at T=0 min or after 30 minute incubation (T=30 min); assay type: biochemical; details: geometric mean of 2-4 determinations unless otherwise indicated
# T1 sequence (Q99685 1-303): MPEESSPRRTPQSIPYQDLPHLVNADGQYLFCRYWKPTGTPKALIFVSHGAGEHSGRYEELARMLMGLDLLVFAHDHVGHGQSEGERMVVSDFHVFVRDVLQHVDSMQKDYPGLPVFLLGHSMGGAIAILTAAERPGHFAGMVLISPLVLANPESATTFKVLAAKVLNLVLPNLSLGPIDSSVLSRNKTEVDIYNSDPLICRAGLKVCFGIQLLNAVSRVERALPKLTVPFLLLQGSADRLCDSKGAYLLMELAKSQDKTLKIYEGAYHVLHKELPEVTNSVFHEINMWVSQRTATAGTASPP
# Experimental: An equal volume of 7-HCA in assay buffer with 10% DMSO was added either immediately (T=0 min) or after a 30 minute incubation (T=30 min) to initiate the reaction. […] After these dilutions, the final concentration of the test compound ranged from 3 μM to 0.03 nM. […] IC50 values were generated based on a four parameter fit model using ABASE software from IDBS.
# [2] = Prodrug in vivo pharmacokinetics in rats after intravenous administration (LC-MS-MS of prodrug and parent); details: for Vd: Vdss
# Experimental: (§1) Pharmacokinetic parameters derived from the plasma analytical data were determined using Watson LIMS 7.2.003 (Thermo Fisher Scientific, Waltham, Mass.).
# [3] = Prodrug in vivo pharmacokinetics in dogs after intravenous administration (LC-MS-MS of prodrug and parent); details: for % AUC Extrap / AUC Extrap / Co / Rate Constant / T½ / AUC / CL / Vdss: Beagle dogs; for clearance / Vd: beagle, dog, in vivo, iv, 0.7 mg/kg; for clearance: CL; for Vd: Vdss
# Experimental: as §1
# [4] = T = 0 min (substrate added immediately), read-out: MAGL (T = 0 min) IC50
# [5] = T = 30 min (30 minute incubation), read-out: MAGL (T = 30 min) IC50
# [6] = Example 31 in plasma, Wistar Hann rats, IV Example 31 at 1.48 mg/kg, Mean
# [7] = Example 31 in plasma, Wistar Hann rats, IV Example 31 at 1.48 mg/kg, Rat 01
# [8] = Example 31 in plasma, Wistar Hann rats, IV Example 31 at 1.48 mg/kg, Rat 02
# [9] = Example 31 in plasma, IV Example 31 at 0.7 mg/kg, Dog 01
# [10] = Example 31 in plasma, IV Example 31 at 0.7 mg/kg, Dog 02
# [11] = Example 31 in plasma, IV Example 31 at 0.7 mg/kg, Mean
# [12] = Example 32 in plasma, rats, IV Example 32 (2 mg/kg active), Mean
# [13] = Example 32 in plasma, rats, IV Example 32 (2 mg/kg active), Rat 03
# [14] = Example 32 in plasma, rats, IV Example 32 (2 mg/kg active), Rat 04
# [15] = Example 32 in plasma, IV Example 32 at 1 mg/kg, Dog 03
# [16] = Example 32 in plasma, IV Example 32 at 1 mg/kg, Dog 04
# [17] = Example 32 in plasma, IV Example 32 at 1 mg/kg, Mean
structure (smiles),measurement,setting,value
"O=C(O[C@H](COP(=O)([O-])[O-])C(F)(F)F)N1CCC2(CC1)C[C@@H](NS(=O)(=O)c1ccccc1)CO2.[Na+].[Na+] [Example 31, (2R)-3,3,3-Trifluoro-2-[({(3R)-3-[(phenylsulfonyl)amino]-1-oxa-8-azaspiro[4.5]dec-8-yl}carbonyl)oxy]propyl phosphate, disodium salt]",pIC50,[1]; [4],< 5.52
same,pIC50,[1]; [5],< 5.52
same,% AUC Extrap,[2]; [6],1.41%
same,AUC,[2]; [6],43.0 ng·h/mL
same,AUC Extrap,[2]; [6],43.6 ng·h/mL
same,Co,[2]; [6],476 ng/mL
same,Rate Constant,[2]; [6],12.1 h⁻¹
same,T½,[2]; [6],3.75 min
same,% AUC Extrap,[2]; [7],1.19%
same,AUC Extrap,[2]; [7],43.6 ng·h/mL
same,Co,[2]; [7],399 ng/mL
same,Rate Constant,[2]; [7],8.61 h⁻¹
same,T½,[2]; [7],4.83 min
same,AUC,"[2]; Example 31 in plasma, Wistar Hann rats, IV Example 31 at 1.48 mg/kg, Rat 01, AUC interval 0-0.5 Hours",43.1 ng·h/mL
same,% AUC Extrap,[2]; [8],1.62%
same,AUC Extrap,[2]; [8],43.6 ng·h/mL
same,Co,[2]; [8],553 ng/mL
same,Rate Constant,[2]; [8],15.6 h⁻¹
same,T½,[2]; [8],2.67 min
same,AUC,"[2]; Example 31 in plasma, Wistar Hann rats, IV Example 31 at 1.48 mg/kg, Rat 02, AUC interval 0-0.25 Hours",42.9 ng·h/mL
same,clearance,"[2]; Wistar Hann, rat, in vivo, iv, 1.48 mg/kg",566 mL/min/kg
same,Vd,"[2]; Wistar Hann, rat, in vivo, iv, 1.48 mg/kg, Example 31 in plasma, Wistar Hann rats, IV Example 31 at 1.48 mg/kg, Mean",2.23 L/kg
same,Vd,"[2]; Wistar Hann, rat, in vivo, iv, 1.48 mg/kg, Example 31 in plasma, Wistar Hann rats, IV Example 31 at 1.48 mg/kg, Rat 01",2.86 L/kg
same,Vd,"[2]; Wistar Hann, rat, in vivo, iv, 1.48 mg/kg, Example 31 in plasma, Wistar Hann rats, IV Example 31 at 1.48 mg/kg, Rat 02",1.59 L/kg
same,% AUC Extrap,[3]; [9],0.181%
same,AUC Extrap,[3]; [9],108 ng·h/mL
same,Co,[3]; [9],1630 ng/mL
same,Rate Constant,[3]; [9],11.3 h⁻¹
same,T½,[3]; [9],3.68 min
same,AUC,"[3]; Example 31 in plasma, IV Example 31 at 0.7 mg/kg, Dog 01, AUC interval 0-0.5 Hours",108 ng·h/mL
same,% AUC Extrap,[3]; [10],0.103%
same,AUC Extrap,[3]; [10],53.9 ng·h/mL
same,Co,[3]; [10],821 ng/mL
same,Rate Constant,[3]; [10],11.2 h⁻¹
same,T½,[3]; [10],3.72 min
same,AUC,"[3]; Example 31 in plasma, IV Example 31 at 0.7 mg/kg, Dog 02, AUC interval 0-0.5 Hours",53.8 ng·h/mL
same,% AUC Extrap,[3]; [11],0.142%
same,AUC,[3]; [11],80.9 ng·h/mL
same,AUC Extrap,[3]; [11],81.0 ng·h/mL
same,Co,[3]; [11],1230 ng/mL
same,Rate Constant,[3]; [11],11.3 h⁻¹
same,T½,[3]; [11],3.7 min
same,clearance,[3]; [9],108 mL/min/kg
same,clearance,[3]; [10],216 mL/min/kg
same,clearance,[3]; [11],162 mL/min/kg
same,Vd,[3]; [9],0.235 L/kg
same,Vd,[3]; [10],0.465 L/kg
same,Vd,[3]; [11],0.35 L/kg
"O=C(O[C@H](COP(=O)([O-])[O-])C(F)(F)F)N1CCC2(CC1)CN(S(=O)(=O)c1ccc(F)cc1)CCO2.[Na+].[Na+] [Example 32, (2R)-3,3,3-Trifluoro-2-[({4-[(4-fluorophenyl)sulfonyl]-1-oxa-4,9-diazaspiro[5.5]undec-9-yl}carbonyl)oxy]propyl phosphate, disodium salt]",pIC50,[1]; [4],< 5.52
same,pIC50,[1]; [5],< 5.52
same,% AUC Extrap,[2]; [12],0.532%
same,AUC,[2]; [12],159 ng·h/mL
same,AUC Extrap,[2]; [12],160 ng·h/mL
same,CL,[2]; [12],215 mL/min/kg
same,Co,[2]; [12],3760 ng/mL
same,Rate Constant,[2]; [12],5.94 h⁻¹
same,T½,[2]; [12],7.32 min
same,Vdss,[2]; [12],0.597 L/kg
same,% AUC Extrap,[2]; [13],0.232%
same,AUC Extrap,[2]; [13],185 ng·h/mL
same,CL,[2]; [13],180 mL/min/kg
same,Co,[2]; [13],4480 ng/mL
same,Rate Constant,[2]; [13],4.73 h⁻¹
same,T½,[2]; [13],8.82 min
same,Vdss,[2]; [13],0.515 L/kg
same,AUC,"[2]; Example 32 in plasma, rats, IV Example 32 (2 mg/kg active), Rat 03, AUC interval 0-1 Hours",185 ng·h/mL
same,% AUC Extrap,[2]; [14],0.832%
same,AUC Extrap,[2]; [14],134 ng·h/mL
same,CL,[2]; [14],249 mL/min/kg
same,Co,[2]; [14],3040 ng/mL
same,Rate Constant,[2]; [14],7.14 h⁻¹
same,T½,[2]; [14],5.83 min
same,Vdss,[2]; [14],0.679 L/kg
same,AUC,"[2]; Example 32 in plasma, rats, IV Example 32 (2 mg/kg active), Rat 04, AUC interval 0-0.5 Hours",133 ng·h/mL
same,% AUC Extrap,[3]; [15],0.0443%
same,AUC Extrap,[3]; [15],146 ng·h/mL
same,CL,[3]; [15],114 mL/min/kg
same,Co,[3]; [15],1220 ng/mL
same,Rate Constant,[3]; [15],5.08 h⁻¹
same,T½,[3]; [15],8.16 min
same,Vdss,[3]; [15],0.751 L/kg
same,AUC,"[3]; Example 32 in plasma, IV Example 32 at 1 mg/kg, Dog 03, AUC interval 0-1 Hours",146 ng·h/mL
same,% AUC Extrap,[3]; [16],0.150%
same,AUC Extrap,[3]; [16],229 ng·h/mL
same,CL,[3]; [16],72.8 mL/min/kg
same,Co,[3]; [16],2370 ng/mL
same,Rate Constant,[3]; [16],5.06 h⁻¹
same,T½,[3]; [16],8.22 min
same,Vdss,[3]; [16],0.357 L/kg
same,AUC,"[3]; Example 32 in plasma, IV Example 32 at 1 mg/kg, Dog 04, AUC interval 0-1 Hours",229 ng·h/mL
same,% AUC Extrap,[3]; [17],0.0972%
same,AUC,[3]; [17],188 ng·h/mL
same,AUC Extrap,[3]; [17],188 ng·h/mL
same,CL,[3]; [17],93.4 mL/min/kg
same,Co,[3]; [17],1800 ng/mL
same,Rate Constant,[3]; [17],5.07 h⁻¹
same,T½,[3]; [17],8.22 min
same,Vdss,[3]; [17],0.554 L/kg
